This is an account of results in US12178809B2, “Pyridinyl sulfonamide derivatives, pharmaceutical compositions and uses thereof” (Boehringer Ingelheim International GmbH, priority 2018, dated 2024).

Each structure is given as a SMILES string. Where a name gives a salt, the structure may show the parent alone. Read-outs that look alike come from different tables or passages of the source. Where only a bound is given, the exact number is not on record here.

In one test the target is human AOC3 enzyme (Homo sapiens (Human), UniProt Q16853). The test can be described thus: AOC3 biochemical assay (MAO-Glo). From the text: The MAO-Glo™ Assay (commercially available from PROMEGA, #V1402) provides a sensitive method for the measurement of monoamine oxidase (MAO) activity (Valley, M. P. et al., 2006, Anal. Biochem. 359: 238-246) from a variety of tissues, biofluids or recombinant expressed or purified enzymes. As substrate a derivate of the beetle luciferin ((4S)-4,5-dihydro-2-(6-hydroxybenzothiazolyl)-4-thiazole-carboxylic acid) is used, which is oxidized at a primary amine moiety. After a spontaneous elimination and a catalyzed esterase reaction, the turnover of the luciferine by the luciferase is recorded as a signal of AOC3 activity.
Sequence of human AOC3 enzyme (Q16853 whole entry): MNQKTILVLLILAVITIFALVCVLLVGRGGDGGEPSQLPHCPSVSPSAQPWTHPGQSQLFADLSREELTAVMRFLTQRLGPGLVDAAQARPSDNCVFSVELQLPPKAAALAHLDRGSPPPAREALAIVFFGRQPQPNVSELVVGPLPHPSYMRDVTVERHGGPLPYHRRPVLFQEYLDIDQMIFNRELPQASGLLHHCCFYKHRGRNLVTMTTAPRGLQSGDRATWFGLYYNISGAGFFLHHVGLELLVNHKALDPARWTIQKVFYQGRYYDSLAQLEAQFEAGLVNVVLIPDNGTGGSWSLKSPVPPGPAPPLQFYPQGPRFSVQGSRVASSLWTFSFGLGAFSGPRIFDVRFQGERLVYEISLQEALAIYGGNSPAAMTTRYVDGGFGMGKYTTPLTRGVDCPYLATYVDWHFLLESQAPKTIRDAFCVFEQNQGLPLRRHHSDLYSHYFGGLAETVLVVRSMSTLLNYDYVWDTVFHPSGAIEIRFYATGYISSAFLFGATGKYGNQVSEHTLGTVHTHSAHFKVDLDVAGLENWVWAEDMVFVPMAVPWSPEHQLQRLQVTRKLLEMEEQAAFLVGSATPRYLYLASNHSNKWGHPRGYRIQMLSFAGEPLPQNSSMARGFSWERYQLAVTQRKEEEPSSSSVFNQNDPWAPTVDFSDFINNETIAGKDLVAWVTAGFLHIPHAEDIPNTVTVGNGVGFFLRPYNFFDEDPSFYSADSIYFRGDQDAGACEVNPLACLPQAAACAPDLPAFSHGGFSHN
An aliquot of 3 μL of the compound dilution is added to a 384 well plate (Optiplate, PS, flat bottom, white, PERKIN ELMER, #6007290) with a final DMSO concentration of 6.6%. Recombinant CHO cells, overexpressing the human (1500 cells/well), mouse (1000 cells/well) or rat (500 cells/well) AOC3 enzyme are diluted in reaction buffer and added in a volume of 15 μL to the wells. After incubation for 20 minutes at 37° C., 2 μL of MAO substrate (dissolved in DMSO at 16 mM, adjusted to assay concentration in reaction buffer to a final assay concentration of 20 μM) is added and further incubated for 60 minutes at 37° C. The turnover of the substrate is determined by the addition of 20 μL of the detection-mix which was generated by the addition of reconstitution buffer with esterase (PROMEGA, #V1402) to the luciferine detection reagent (PROMEGA, #V1402). After an incubation period of 20 minutes, the luminescent signal is measured with Envision 2104 Multilabel Reader (PERKIN ELMER).

The target of a further test is AOC1 (Homo sapiens (Human), UniProt P19801). The test can be described thus: AOC1 biochemical assay (Amplex Red). How it is done:
The Amplex® Red Assay (available from Thermo Fisher Scientific) provides a sensitive method for the detection of H2O2 generated during enzymatic reactions like the amine oxidation catalyzed by AOC1. The assay reagent is a colorless substrate (N-acetyl-3,7-dihydroxyphenoxazine) that reacts in a 1:1 stoichiometry with hydrogen peroxide (H2O2) to produce the fluorescent dye resorufin (7-hydroxyphenoxazin-3-one, excitation/emission maxima=570/585 nm).
An aliquot of 3 μL of the compound dilution is added to a 384 well plate (Optiplate, PS, flat bottom F, black, PERKIN ELMER, #6007270) in a DMSO concentration of 6.6%.
An AOC1 enzyme aliquot (#8297-AO-010, R&D Systems) is thawed on ice, diluted in reaction buffer and added in a volume of 7 μL to the wells to give a final assay concentration of 1 ng/well. After incubation of inhibitor and enzyme for 30 minutes at 37° C., the enzymatic reaction is started with the addition of 10 μL of Amplex® Red reaction mix (final assay concentration: 100 mM sodiumphosphate, 120 μM Amplex® Red reagent (#A22177 Molecular Probes), 1.5 U/mL Horseradish Peroxidase (#P8375 Sigma-Aldrich), 200 μM putrescine (#P7505 Sigma-Alrdich), 0.05% Pluronic F-127 (#P3000MP Sigma-Aldrich), pH 7.4, 37° C.).
After an incubation for 30 minutes at 37° C. the turnover of the substrate is determined directly (or after the addition of an excess of an amine-oxidase inhibitor) with a fluorescence reader (Ex 540 nm/Em 590 nm) like Envision 2104 Multilabel Reader (PERKIN ELMER).

In a further test the target is AOC2 (Homo sapiens (Human), UniProt O75106). Put plainly: AOC2 biochemical assay (Amplex Red). On the procedure: An aliquot of 5 μL of the compound dilution is added to a 96 well plate (flat bottom F, black, GREINER bio-one, #655900) in a DMSO concentration of 2%. […] Cells are cultured for 3 days in EMEM culture medium containing 10% FCS (#04-00-1A, Biological Industries). After washing twice with ice cold PBS, cells are lysed by mechanic homogenation and cleared supernatants are shock frozen in liquid nitrogen and stored at -80° C. […] An Aliquot of 45 μL is added to the compound dilution and incubated for 30 min at 37° C. The enzymatic reaction is started with the addition of 50 μL of Amplex® Red reaction mix (final assay concentration: 100 mM sodiumphosphate, 120 μM Amplex® Red reagent (#A22177 Molecular Probes), 1.5 U/mL Horseradish Peroxidase (#P8375 Sigma-Aldrich), 2 mM phenylethylamine (#[…] Sigma-Aldrich), 0.05% Pluronic F-127 (#P3000MP Sigma-Aldrich), pH 7.4, 37° C.). The turnover per time of the substrate is determined directly with a fluorescence reader (Ex 540 nm/Em 590 nm) like Envision 2104 Multilabel Reader (PERKIN ELMER) for 60 min.
Sequence of AOC2 (O75106 whole entry): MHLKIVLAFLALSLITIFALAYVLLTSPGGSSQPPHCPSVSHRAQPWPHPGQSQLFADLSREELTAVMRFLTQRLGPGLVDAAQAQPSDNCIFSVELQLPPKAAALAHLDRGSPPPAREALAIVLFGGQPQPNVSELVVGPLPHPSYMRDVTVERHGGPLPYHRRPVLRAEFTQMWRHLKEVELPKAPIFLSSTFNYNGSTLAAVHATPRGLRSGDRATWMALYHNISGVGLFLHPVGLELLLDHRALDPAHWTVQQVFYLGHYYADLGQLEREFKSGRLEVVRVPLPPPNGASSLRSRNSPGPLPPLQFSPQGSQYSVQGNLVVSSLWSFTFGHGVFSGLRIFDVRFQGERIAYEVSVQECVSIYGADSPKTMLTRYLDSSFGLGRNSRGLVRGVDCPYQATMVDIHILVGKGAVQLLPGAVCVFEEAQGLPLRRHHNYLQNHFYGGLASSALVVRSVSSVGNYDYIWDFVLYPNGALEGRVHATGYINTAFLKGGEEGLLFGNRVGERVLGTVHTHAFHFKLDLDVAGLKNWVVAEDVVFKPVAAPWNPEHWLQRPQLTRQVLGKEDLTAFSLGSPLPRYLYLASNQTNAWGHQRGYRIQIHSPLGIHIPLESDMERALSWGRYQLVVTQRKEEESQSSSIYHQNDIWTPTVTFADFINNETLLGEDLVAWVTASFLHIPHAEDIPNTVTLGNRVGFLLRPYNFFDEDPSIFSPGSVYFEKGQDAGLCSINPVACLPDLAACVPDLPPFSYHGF

Sequence of AOC1 (P19801 20-751): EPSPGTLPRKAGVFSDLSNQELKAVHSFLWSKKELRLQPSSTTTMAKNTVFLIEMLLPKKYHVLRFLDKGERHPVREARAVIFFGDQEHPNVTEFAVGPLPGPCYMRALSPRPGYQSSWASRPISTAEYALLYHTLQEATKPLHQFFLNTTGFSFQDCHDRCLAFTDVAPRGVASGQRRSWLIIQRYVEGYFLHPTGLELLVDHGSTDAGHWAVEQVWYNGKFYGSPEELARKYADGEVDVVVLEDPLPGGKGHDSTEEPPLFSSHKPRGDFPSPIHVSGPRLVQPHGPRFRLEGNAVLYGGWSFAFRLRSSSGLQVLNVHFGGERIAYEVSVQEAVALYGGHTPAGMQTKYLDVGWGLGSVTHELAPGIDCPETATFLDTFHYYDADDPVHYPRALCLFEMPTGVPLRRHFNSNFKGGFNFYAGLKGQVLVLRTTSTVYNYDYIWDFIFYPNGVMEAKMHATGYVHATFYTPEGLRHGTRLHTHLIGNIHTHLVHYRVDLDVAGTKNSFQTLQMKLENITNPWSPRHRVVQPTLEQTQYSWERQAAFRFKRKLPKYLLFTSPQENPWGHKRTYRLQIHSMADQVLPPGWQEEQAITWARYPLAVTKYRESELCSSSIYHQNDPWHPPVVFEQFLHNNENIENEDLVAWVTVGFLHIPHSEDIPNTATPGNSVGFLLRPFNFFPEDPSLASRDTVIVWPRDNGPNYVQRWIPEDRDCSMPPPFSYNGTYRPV

As usually defined, the IC50 is the concentration that gives 50% inhibition. On to `COC(=O)C1CCN(S(=O)(=O)c2ccc(OC/C(=C/F)CN)nc2)CC1` [Example 51, 1-[6-((E)-2-Aminomethyl-3-fluoro-allyloxy)-pyridine-3-sulfonyl]-piperidine-4-carboxylic acid methyl ester trifluoroacetate], for which the IC50 on human AOC3 enzyme (read-out: AOC3 IC50) was found to be 13 nM; on AOC1 (read-out: AOC1 IC50), 48 µM; on AOC2 (read-out: AOC2 IC50) it was 325 nM.

For the compound `COC(=O)[C@H]1[C@@H]2CN(S(=O)(=O)c3ccc(OC/C(=C/F)CN)nc3)C[C@@H]21` [Example 52], the IC50 amounted to 9 nM at human AOC3 enzyme (read-out: AOC3 IC50), 41.8 µM at AOC1 (read-out: AOC1 IC50) and 315 nM on AOC2 (read-out: AOC2 IC50).

As to `COC(=O)C1(C)CCN(S(=O)(=O)c2ccc(OC/C(=C/F)CN)nc2)CC1` [Example 53], the IC50 on human AOC3 enzyme (read-out: AOC3 IC50) was 15 nM; at AOC1 (read-out: AOC1 IC50) it was more than 50 µM; at AOC2 (read-out: AOC2 IC50), 19 nM.

`NC/C(=C\F)COc1ccc(S(=O)(=O)N2CCC(CC(=O)O)CC2)cn1` [Example 54, trifluoroacetate]: the IC50 is 308 nM at human AOC3 enzyme (read-out: AOC3 IC50), more than 50 µM on AOC1 (read-out: AOC1 IC50) and 4 nM on AOC2 (read-out: AOC2 IC50).

Turning to `NC/C(=C\F)COc1ccc(S(=O)(=O)N2C[C@@H]3[C@H](C2)[C@H]3C(=O)O)cn1` [Example 55, trans-3-[6-((E)-2-Aminomethyl-3-fluoro-allyloxy)-pyridine-3-sulfonyl]-3-aza-bicyclo[3.1.0]hexane-6-carboxylic acid trifluoroacetate], the results for the IC50 on human AOC3 enzyme (read-out: AOC3 IC50), at AOC1 (read-out: AOC1 IC50) and on AOC2 (read-out: AOC2 IC50) were 391 nM, more than 50 µM and 50 nM, respectively.

In the case of `NC/C(=C\F)COc1ccc(S(=O)(=O)N2CCC(C(=O)O)CC2)cn1` [Example 56], the values for the IC50 at human AOC3 enzyme (read-out: AOC3 IC50), at AOC1 (read-out: AOC1 IC50) and on AOC2 (read-out: AOC2 IC50) were 89 nM, 34.7 µM and 34 nM, respectively.

In the case of `CC1(C(=O)O)CCN(S(=O)(=O)c2ccc(OC/C(=C/F)CN)nc2)CC1` [Example 57], the figures for the IC50 on human AOC3 enzyme (read-out: AOC3 IC50), on AOC1 (read-out: AOC1 IC50) and at AOC2 (read-out: AOC2 IC50) were 2690 nM, more than 50 µM and 6 nM, respectively.

Regarding `CC1(C(=O)NC2CCOCC2)CCN(S(=O)(=O)c2ccc(OC/C(=C/F)CN)nc2)CC1` [Example 58, 1-[6-((E)-2-Aminomethyl-3-fluoro-allyloxy)-pyridine-3-sulfonyl]-4-methyl-piperidine-4-carboxylic acid (tetrahydropyran-4-yl)-amide trifluoroacetate], the values for the IC50 on human AOC3 enzyme (read-out: AOC3 IC50), at AOC1 (read-out: AOC1 IC50) and on AOC2 (read-out: AOC2 IC50) were 114 nM, more than 49.9 µM and 363 nM, respectively.

For `NC/C(=C\F)COc1ccc(S(=O)(=O)N2CCC(CC(N)=O)CC2)cn1` [Example 60], the 50% inhibitory concentration (IC50) at human AOC3 enzyme (read-out: AOC3 IC50) is 21 nM; at AOC1 (read-out: AOC1 IC50), more than 50 µM; at AOC2 (read-out: AOC2 IC50), 92 nM.

On to `CC1(C(N)=O)CCN(S(=O)(=O)c2ccc(OC/C(=C/F)CN)nc2)CC1` [Example 61], for which the results for the IC50 on human AOC3 enzyme (read-out: AOC3 IC50), on AOC1 (read-out: AOC1 IC50) and on AOC2 (read-out: AOC2 IC50) were 26 nM, more than 50 µM and 61 nM, respectively.

With `COC1CN(S(=O)(=O)c2ccc(OC/C(=C/F)CN)cc2)C1` [Reference compound A, reference compound], the IC50 at human AOC3 enzyme (comparison table, read-out: IC50 AOC3) is 13 nM; at AOC1 (comparison table, unit μM, read-out: IC50 AOC1), more than 50 µM; on AOC2 (comparison table, read-out: IC50 AOC2), 287 nM. Further, the “fold less active against AOC2 as compared to AOC3 (ratio IC50 AOC2/IC50 AOC3)” value on AOC2 is 22 fold.
